Measurements taken from US6696621B2, “Selectable marker in plants” (Paradigm Genetics, Inc., priority 2001, dated 2004).

Assays:
[1] = system: rice callus, derived from immature rice embryos of the variety TP309; assay: Dose response of clonNAT on rice callus growth and survival; type: cell-based; settings: 26° C. in the dark
Method: a) Dose response. For selection of transgenic calli based on resistance to clonNAT following Agrobacterium-mediated transformation of rice callus material, a dose response experiment is made to determine the concentration of clonNAT in callus growth medium in order to inhibit the growth of rice callus, or to kill the rice cells. Growth media (GM) used for rice callus comprise the following basic components: N6 salts (Duchefa) 3.95 g/l; B5 vitamins (Duchefa) 112 mg/l; proline (Duchefa) 500 mg/l; glutamine (Duchefa) 500 mg/l; casein hydrolysate (Duchefa) 500 mg/l. […]
Several pieces of rice callus, derived from immature rice embryos of the variety TP309 (National Small Grain Collection, USDA, ARS, Aberdeen, Id.) are put on these plates, the plates are incubated at 26° C. in the dark, and survival of the embryos and proliferation of the embryo cells are observed every day. Based on the survival rate of the embryos on the media plates containing different concentrations of clonNAT, a useful concentration of clonNAT for selection of transgenic rice is determined to be within a range of about 20 to about 1000 mg/l or more, preferably about 200 mg/l or less. […]

[2] = system: wildtype Arabidopsis thaliana; assay: Dose response of clonNAT sprayed on wildtype Arabidopsis thaliana seedlings; type: in vivo; settings: sprayed on three consecutive days with 0.005% Silwet L-77; assessed 36 hours after last spray
Method: a) Dose response. The selection conditions for plants that are transgenic with the nrg gene are determined in a dose response experiment. From about 2000 to 3000 wildtype Arabidopsis thaliana seeds per pot are sown in 5″×5″ (13 cm×13 cm) soil pots. When the first true leaves of the seedlings have emerged after approximately 7 days, the seedlings are sprayed with a hand-held sprayer until all leaf material is completely wet on three consecutive days with a solution of 0.005% Silwet L-77 (50 ul/l) in water and variable concentrations of clonNAT (1, 5, 10, 20, 50, 100, 250, 500 mg/l). The results are assessed 36 hours after the last spray. A useful range of concentration of clonNAT for selection of transgenic Arabidopsis plants (as assessed as concentrations that kill non-transgenic Arabidopsis plants after applying the described sprayings) is determined within a range of about 20 to about 1000 mg/l or more, preferably about 200 mg/l or less.

[3] = Ability of NRG protein to impart resistance to nourseothricin; settings: NRG protein with aspartate instead of glycine at position 70

| Molecule | preferred concentration of clonNAT for selection of transgenic rice ([1]; callus growth medium plates, based on survival rate of embryos) [mg/L] | fate of embryo-derived rice callus on clonNAT-containing medium plates ([1]; clonNAT 200 mg/l selection plates, after 4-5 weeks) | preferred concentration of clonNAT for selection of transgenic Arabidopsis plants [2] [mg/L] | ability to impart resistance to the nourseothricin antibiotic [3] |
| --- | --- | --- | --- | --- |
| 2-[4-O-Carbamoyl-2-deoxy-2-(3,6-diaminohexan-amido)-B-D-gulopyranoslamino)-3,3a,5 ,6,7,7a-hexahydro-5-hydroxy-4H-imidazo[4,5-c]pyridin-4one dihydrogensulphate [clonNAT] | ≤ 200 | died | ≤ 200 |  |
| NRG protein: novel nourseothricin N-acetyltransferase, amino acid sequence of SEQ ID NO. 1; confers resistance to nourseothricin (protein, Novel protein conferring resistance to the antibiotic known as nourseothricin) MTTLDDTAYRYRTSVPGDAEAIEALDGSFTTDTVFRVTATGDGFTLREVPVDPPLTKVFPDDESDDESDDGEDGDPDSRTFVAYGDDGDLAGFVVVSYSGWNRRLTVEDIEVAPEHRGHGVGRALMGLATEFARERGAGHLWLEVTNVNAPAIHAYRRMGFTLCGLDTALYDGTASDGEQALYMSMPCP |  |  |  | retains the ability to impart resistance |
